Test systems include MCF7; OVCAR-3; HL-60; ACHN; SK-MEL-28; RPMI-8226; T47D; UACC-62; HT-29; MOLT-4; HOP-62; UACC-257; A498; BT-549; NCI-H226; SK-MEL-2; IGROV-1; SF-539; LOX IMVI.
Common to all, as to assay: growth of human tumour cells (NCI), 48 h

Where “and” joins values, the source holds several entries; their conditions need not be identical. Equal entries are not always repeated.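 Growth conditions: 96-well plates. Treatment: test compound, 48 hours, 5 concentrations. Analysis: linear interpolation between bracketing concentrations; unreached endpoints set to highest concentration. The concentration for 50% growth inhibition is given as GI50.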 Calls of active or inactive are those of the source. Rule as the data show it: active = GI50 up to about 1.1 µM and inactive = higher. Some results are limits rather than exact numbers.

As to `Cc1ccc(C(=C2Sc3ccccc3S2)C(=C2Sc3ccccc3S2)c2ccc(C)s2)s1`, the GI50 is > 100 µM (inactive) with MCF7; > 100 µM (inactive) in the test on OVCAR-3; 13.6 µM (inactive) with HL-60; > 100 µM (inactive) with ACHN; > 100 µM (inactive) in the test on SK-MEL-28; > 100 µM (inactive) with RPMI-8226. The GI50 in the test with T47D, in the test with UACC-62, with HT-29, with MOLT-4, in the test with HOP-62 and in the test on UACC-257 was > 100 µM (inactive) in each case. In addition, the GI50 with A498, in the test with BT-549, in the test with NCI-H226, in the test with SK-MEL-2 and with IGROV-1 was > 100 µM (inactive) throughout.
Consider `CC(=O)O[C@H]1C(=O)[C@@]2(C)[C@H]([C@H](OC(=O)c3ccccc3)[C@]3(O)C[C@H](OC(=O)[C@H](O)[C@@H](NC(=O)c4ccccc4)c4ccc5ccccc5c4)C(C)=C1C3(C)C)[C@]1(OC(C)=O)CO[C@@H]1C[C@@H]2O`, for which the GI50 with MCF7 was 0.00966 µM (active); in the test with OVCAR-3, 0.0362 µM (active); with HL-60, 0.0107 µM (active); with ACHN, 1.51 µM (inactive); in the test on SK-MEL-28 it was 0.132 µM (active); with RPMI-8226, 0.0229 µM (active). Also, the GI50 in the test on T47D was 2.16 µM (inactive); in the test with UACC-62 it was 0.0463 µM (active); in the test on HT-29, 0.0454 µM (active); in the test with MOLT-4, 0.0264 µM (active); in the test with HOP-62 it was 0.0506 µM (active); in the test with SF-539, 0.0336 µM (active). Further, the GI50 in the test with UACC-257 is 0.0826 µM (active); in the test on A498 it was 0.467 µM (active); with BT-549, 0.0807 µM (active); with LOX IMVI, 0.0887 µM (active); with SK-MEL-2, 0.0362 µM (active); in the test with IGROV-1 it was 0.0467 µM (active).
Consider `CCCN(CCCc1ccccc1)CCc1ccc2[nH]c(=S)[nH]c2c1`, for which the GI50 in the test on MCF7 was 28.2 µM (inactive); in the test with OVCAR-3 it was 37.1 µM (inactive); in the test with ACHN, 29.2 µM (inactive); with SK-MEL-28, 20.1 µM (inactive); with RPMI-8226, 12.4 µM (inactive); in the test on T47D it was 12.1 µM (inactive). The GI50 with UACC-62 was 31 µM (inactive); in the test on MOLT-4 it was 11.3 µM (inactive); in the test on HOP-62 it was 26.5 µM (inactive); with UACC-257, 25.6 µM (inactive); in the test with A498, > 100 µM (inactive); with BT-549 it was 68.9 µM (inactive). In addition, the GI50 is 66.5 µM (inactive) in the test with NCI-H226, 31.3 µM (inactive) with LOX IMVI, 19.3 µM (inactive) with SK-MEL-2 and 14.1 µM (inactive) with IGROV-1.
For the compound `CCOC(=O)c1c(N2CCOCC2)[nH]c(=O)c(C(c2ccc(N(C)C)cc2)c2c(O)c(C(=O)OCC)c(N3CCOCC3)[nH]c2=O)c1O`, the GI50 with MCF7 was > 100 µM (inactive); in the test on OVCAR-3 it was > 100 µM (inactive); in the test with ACHN, > 100 µM (inactive); in the test with SK-MEL-28, > 100 µM (inactive); in the test with RPMI-8226, 46.6 µM (inactive); with T47D it was > 100 µM (inactive). The GI50 in the test with UACC-62, with HT-29, in the test on MOLT-4, with HOP-62, in the test on SF-539 and in the test with UACC-257 was > 100 µM (inactive) in each case. The GI50 is > 100 µM (inactive) in the test with A498; > 100 µM (inactive) with BT-549; > 100 µM (inactive) in the test with NCI-H226; 59 µM (inactive) in the test with LOX IMVI; > 100 µM (inactive) in the test on SK-MEL-2.
`Cc1cn(Cc2cccc(C3=NCCCN3)c2)c(=O)n(Cc2cccc(C3=NCCCN3)c2)c1=O`: the GI50 in the test with MCF7, in the test with OVCAR-3, in the test on HL-60, with ACHN, in the test on SK-MEL-28 and in the test with RPMI-8226 was > 100 µM (inactive) each time. For the same compound, the GI50 in the test with T47D, in the test with UACC-62, in the test with MOLT-4, in the test with HOP-62, in the test on UACC-257 and in the test on A498 was > 100 µM (inactive) throughout. For the same compound, the GI50 with BT-549, with LOX IMVI, in the test on SK-MEL-2 and with IGROV-1 was > 100 µM (inactive) throughout.
For the compound `O=[N+]([O-])c1ccccc1CSc1nc(O)c2nc[nH]c2n1`, the GI50 is > 100 µM (inactive) and > 99.3 µM (inactive) in the test with MCF7; > 100 µM (inactive) in the test on OVCAR-3; 78.2 µM (inactive) with HL-60; > 100 µM (inactive) in the test with ACHN; > 100 µM (inactive) with SK-MEL-28; > 100 µM (inactive) and 89.3 µM (inactive) with RPMI-8226. For the same compound, the GI50 in the test on T47D was > 100 µM (inactive) and 75.7 µM (inactive); in the test on UACC-62 it was > 100 µM (inactive) and 88.1 µM (inactive); in the test on HT-29 it was 72.6 µM (inactive); in the test on MOLT-4, > 100 µM (inactive); in the test with HOP-62, > 100 µM (inactive); in the test with SF-539 it was > 100 µM (inactive). In addition, the GI50 with UACC-257 is 81.3 µM (inactive); in the test on A498, > 100 µM (inactive); in the test with BT-549 it was > 100 µM (inactive); in the test with LOX IMVI it was > 100 µM (inactive); in the test on SK-MEL-2, > 100 µM (inactive); in the test with IGROV-1 it was > 100 µM (inactive).
Turning to `O=C1C=CC(=O)c2c1ccc1c3ccccc3n(Cc3ccccc3)c21`, the GI50 with MCF7 was 17.1 µM (inactive); with OVCAR-3, 17.3 µM (inactive); in the test with ACHN it was 18.2 µM (inactive); in the test with SK-MEL-28, 24.4 µM (inactive); in the test with RPMI-8226 it was 0.231 µM (active); with T47D, 25.1 µM (inactive). The GI50 is 25.4 µM (inactive) with UACC-62; 24.9 µM (inactive) with HT-29; 7.55 µM (inactive) with MOLT-4; > 100 µM (inactive) in the test on HOP-62; 38.4 µM (inactive) with SF-539; 19 µM (inactive) in the test with UACC-257. Moreover, the GI50 with A498 is 19.8 µM (inactive); in the test with BT-549 it was 20.4 µM (inactive); in the test on NCI-H226 it was 7.29 µM (inactive); in the test with LOX IMVI, 20 µM (inactive); with SK-MEL-2 it was 31.5 µM (inactive); in the test with IGROV-1 it was 21.6 µM (inactive).
Turning to `COc1cc2c(cc1O)NC(=S)[C@@H]1CCCN1C2=O`, the GI50 in the test on MCF7, in the test with OVCAR-3, in the test with ACHN, with SK-MEL-28, in the test with RPMI-8226 and in the test on T47D was > 100 µM (inactive) in each case. In addition, the GI50 in the test with UACC-62, in the test on HT-29, in the test with MOLT-4, in the test on HOP-62, with SF-539 and with UACC-257 was > 100 µM (inactive) each time. Further, the GI50 in the test on A498, with BT-549, in the test with NCI-H226, in the test with LOX IMVI, in the test with SK-MEL-2 and with IGROV-1 was > 100 µM (inactive) throughout.
Regarding `O=C1CCC2(O)C3Cc4ccc(Oc5nnnn5-c5ccccc5)c5c4C2(CCN3CC2CC2)C1O5` (stereo unspecified), the GI50 with MCF7 is 54 µM (inactive); in the test with OVCAR-3, 46.7 µM (inactive); in the test with ACHN it was > 100 µM (inactive); in the test with SK-MEL-28, 14.9 µM (inactive); with RPMI-8226, 28.9 µM (inactive); in the test with T47D, 39.5 µM (inactive). The GI50 was 28.7 µM (inactive) in the test with UACC-62; 26.4 µM (inactive) with HT-29; 21 µM (inactive) in the test with MOLT-4; > 100 µM (inactive) with HOP-62; 28.2 µM (inactive) in the test with UACC-257; 29.8 µM (inactive) in the test with A498. The GI50 was 96.2 µM (inactive) in the test on BT-549, 27 µM (inactive) with LOX IMVI, 22.1 µM (inactive) with SK-MEL-2 and > 100 µM (inactive) in the test on IGROV-1.
As for `COc1c(-c2nc3ccc(N4CCN(C)CC4)nc3[nH]2)cc(OC)c2[nH]c(CO)nc12`, the GI50 in the test with MCF7 is 11.2 µM (inactive); in the test on OVCAR-3 it was 39.3 µM (inactive); in the test with ACHN it was > 100 µM (inactive); with SK-MEL-28 it was > 100 µM (inactive); in the test with T47D, 37.1 µM (inactive); in the test on UACC-62, 82.2 µM (inactive). Also, the GI50 was > 100 µM (inactive) in the test on HT-29; 52.2 µM (inactive) with MOLT-4; 99.5 µM (inactive) in the test on HOP-62; 22.5 µM (inactive) in the test with SF-539; > 100 µM (inactive) in the test on UACC-257; > 100 µM (inactive) with A498. The GI50 in the test on BT-549 was > 100 µM (inactive); in the test with NCI-H226, 36.1 µM (inactive); with LOX IMVI, 85.5 µM (inactive); with SK-MEL-2, 32 µM (inactive); in the test with IGROV-1, > 100 µM (inactive).
As to `CC1(C)Oc2ccc3c(=O)cc(-c4ccccc4)oc3c2C1C(=O)O` (stereo unspecified), the GI50 in the test on MCF7, in the test with OVCAR-3, with HL-60, with T47D, in the test with UACC-62 and with HT-29 was > 100 µM (inactive) throughout. Further, the GI50 with MOLT-4, in the test with HOP-62, in the test on SF-539, in the test on UACC-257, with A498 and with BT-549 was > 100 µM (inactive) throughout. Moreover, the GI50 in the test on NCI-H226, in the test with SK-MEL-2 and in the test with IGROV-1 was > 100 µM (inactive) in each case.

These data come from ChEMBL document CHEMBL1201862, “PubChem BioAssay data set” (2004).
